Laboratory results published in paper PMC10926205 (iScience, 2024).
Entries after “also recorded” stand apart in the source; their conditions may differ. Where two headings read alike, the source gives them in different places. Values belong to the compound of their own block, whether it stands above or below them.

What was measured:
GREB1 [1] = assay: GREB1 mRNA expression by qPCR in MCF-7; type: cell-based; conditions: MCF-7, 24 h; for GREB1 transcription (qPCR) compared to DMSO: E2 1nM, IBV 10nM, PHX, genistein, ±equol 100nM, neobavaisoflavone, bavachin, isobavachalcone, daidzein 1μM
ERα [2] = biological target: T1, ERα (Homo sapiens, UniProt P03372); assay: cell-based; type: cell-based; conditions: for selectivity for either estrogen receptor: ERα vs ERβ array EC50; for EC50 / PRL-ERα EC50 (nM): array formation (DNA binding), 1 h; for EC50 / PRL-ERα EC50 (nM) / ERα DNA binding and transcription at the 100nM dose: ERα-GFP:PRL-HeLa
T1 sequence (P03372 1-595): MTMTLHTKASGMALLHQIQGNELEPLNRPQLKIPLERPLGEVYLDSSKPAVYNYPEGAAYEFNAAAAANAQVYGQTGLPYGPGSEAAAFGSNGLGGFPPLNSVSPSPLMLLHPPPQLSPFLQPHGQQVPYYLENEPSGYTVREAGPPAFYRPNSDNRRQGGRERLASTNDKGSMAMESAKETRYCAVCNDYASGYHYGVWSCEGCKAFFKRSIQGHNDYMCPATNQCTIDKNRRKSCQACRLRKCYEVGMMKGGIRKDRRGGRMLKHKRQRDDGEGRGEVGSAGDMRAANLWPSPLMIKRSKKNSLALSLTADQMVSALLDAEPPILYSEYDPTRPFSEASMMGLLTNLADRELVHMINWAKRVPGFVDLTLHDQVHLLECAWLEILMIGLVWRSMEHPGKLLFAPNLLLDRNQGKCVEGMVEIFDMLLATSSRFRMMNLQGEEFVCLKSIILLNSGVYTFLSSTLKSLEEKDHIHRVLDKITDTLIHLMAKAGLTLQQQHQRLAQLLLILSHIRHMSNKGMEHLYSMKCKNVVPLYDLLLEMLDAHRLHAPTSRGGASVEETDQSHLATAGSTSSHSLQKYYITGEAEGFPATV

[3] = tested on: ERE-GFP reporter in the liver; assay: Transgenic zebrafish ERE-GFP reporter, liver; type: in vivo; conditions: for ER signal (ERE-GFP) in the liver: highest nonlethal doses tested; for ERE-GFP activation in the zebrafish (liver or heart): nonlethal doses tested (<100μM)
MCF-7 cells = assay: MCF-7 proliferation assay; type: cell-based; conditions: 120 h; for increase in cell number of MCF-7 cells: compared with DMSO
ERβ [4] = biological target: T2, ERβ (Homo sapiens, UniProt Q92731); assay: cell-based; type: cell-based
[5] = tested on: ERE-GFP in the heart valves; assay: Transgenic zebrafish ERE-GFP reporter, heart valves; type: in vivo; conditions: highest nonlethal doses tested
GREB1 [6] = assay: GREB1 smRNA FISH; type: cell-based; conditions: MCF-7, 24 h; E2 1nM, IBV 10 and 100nM, PHX 100nM
ERα or ERβ = type: cell-based; conditions: flavonoid screen, cell line not stated
ERα [7] = biological target: T1, ERα; assay: dsRed2 reporter RNA FISH in ERα-GFP:PRL-HeLa; type: cell-based
ERβ [8] = biological target: T2, ERβ; assay: dsRed2 reporter RNA FISH in GFP-ERβ:PRL-HeLa; type: cell-based; conditions: highest dose tested (10μM)
[9] = biological target: T3, progesterone receptor (GFP-PR) (Homo sapiens, UniProt P06401); assay: GFP-PR PRL array biosensor cell line, array formation; type: cell-based; conditions: 100nM
T3 sequence (P06401 679-933 limits assumed): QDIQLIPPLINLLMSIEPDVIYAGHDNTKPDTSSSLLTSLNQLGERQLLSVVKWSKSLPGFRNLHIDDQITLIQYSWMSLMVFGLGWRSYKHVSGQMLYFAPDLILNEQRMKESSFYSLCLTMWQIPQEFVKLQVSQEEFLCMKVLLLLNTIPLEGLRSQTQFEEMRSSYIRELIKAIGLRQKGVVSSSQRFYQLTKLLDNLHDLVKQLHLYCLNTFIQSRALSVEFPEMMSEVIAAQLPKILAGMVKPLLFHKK

ERα [10] = conditions: read-out: EC50 for displacement of E2 from ERα in rat uteri; cited from earlier work
[11] = array formation (DNA binding), GFP-ERβ:PRL-HeLa, 1 h
[12] = read-out: PRL-ERβ EC50, array formation (DNA binding), GFP-ERβ:PRL-HeLa, 1 h

T2 sequence (Q92731 whole entry): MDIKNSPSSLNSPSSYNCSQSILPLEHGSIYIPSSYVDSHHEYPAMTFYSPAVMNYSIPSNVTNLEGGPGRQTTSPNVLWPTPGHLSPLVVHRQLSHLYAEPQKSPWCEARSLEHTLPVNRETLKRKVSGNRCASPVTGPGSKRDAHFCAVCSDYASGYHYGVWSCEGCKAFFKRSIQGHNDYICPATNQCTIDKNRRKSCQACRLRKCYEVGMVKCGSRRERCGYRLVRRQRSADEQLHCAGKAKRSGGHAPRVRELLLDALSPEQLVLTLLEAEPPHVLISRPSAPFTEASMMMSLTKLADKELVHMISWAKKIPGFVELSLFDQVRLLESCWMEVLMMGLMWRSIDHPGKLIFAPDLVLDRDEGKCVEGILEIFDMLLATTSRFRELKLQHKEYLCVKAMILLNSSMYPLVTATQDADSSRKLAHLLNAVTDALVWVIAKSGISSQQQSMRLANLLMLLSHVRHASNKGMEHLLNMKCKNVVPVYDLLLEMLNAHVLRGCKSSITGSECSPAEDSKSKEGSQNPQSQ

selectivity for either estrogen receptor (ERα [2]): > 5 fold
Structure (SMILES): CC(C)=CCc1cc2c(cc1O)O[C@H](c1ccc(O)cc1)CC2=O [Bavachin]
GREB1 transcription (qPCR) compared to DMSO (GREB1 [1]): activation of GREB1 transcription

Structure (SMILES): O=c1c(-c2ccc(O)cc2)coc2cc(O)ccc12 [Daidzein]
GREB1 transcription (qPCR) compared to DMSO (GREB1 [1]): activation of GREB1 transcription

Structure (SMILES): C[C@]12CC[C@@H]3c4ccc(O)cc4CC[C@H]3[C@@H]1CC[C@@H]2O [E2, 17β-estradiol, reference compound]
ER signal (ERE-GFP) in the liver [3]: activate ER signal
GREB1 transcription (qPCR) compared to DMSO (GREB1 [1]): activation of GREB1 transcription
increase in cell number of MCF-7 cells (MCF-7 cells): 150%
fraction of cells with a visible array (ERβ [4]): 75%
ER signal (ERE-GFP) in the heart [5]: activate ER signal
induction of transcriptionally active GREB1 alleles (GREB1 [6]): significant induction

Structure (SMILES): COc1cc(O)ccc1/C=C/C(=O)c1ccc(O)cc1 [Echinatin]
ERE-GFP activation in the zebrafish (liver or heart) [3]: Neither isosakuranetin, echinatin, nor loureirin A activated the ERE-GFP
GREB1 gene expression compared to DMSO and E2 (GREB1 [1]; compounds 1μM, E2 10nM): induced expression to the same level as E2
EC50 in MCF-7 growth assay (MCF-7 cells): sub-micromolar
EC50 (ERβ [4]): 69.5 nM
PRL-ERβ EC50 (nM) (ERβ [4]; [11]): sub-micromolar
EC50 (ERα [2]; PRL-ERα EC50 (nM)): 174 nM
PRL-ERα EC50 (nM) (ERα [2]): sub-micromolar

Structure (SMILES): CN1CC[C@H](c2c(O)cc(O)c3c(=O)cc(-c4ccccc4Cl)oc23)[C@H](O)C1 [Flavopiridol (Alvocidib), Flavopiridol, reference compound]
transcriptional output (dsRed2 FISH) versus DMSO (ERα or ERβ): suppressed transcriptional output to a lower level than DMSO

Structure (SMILES): CN1CC[C@H](c2c(O)cc(O)c3c(=O)cc(-c4ccccc4Cl)oc23)[C@H](O)C1.Cl [Flavopiridol HCl, reference compound]
transcriptional output (dsRed2 FISH) versus DMSO (ERα or ERβ): suppressed transcriptional output to a lower level than DMSO

Structure (SMILES): O=c1c(-c2ccc(O)cc2)coc2cc(O)cc(O)c12 [Genistein]
GREB1 transcription (qPCR) compared to DMSO (GREB1 [1]): activation of GREB1 transcription

Structure (SMILES): COc1cc(-c2coc3cc(O)c(OC)c(O)c3c2=O)cc(O)c1OC [Irigenin]
transcriptional output (dsRed2 FISH) versus DMSO (ERα or ERβ): suppressed transcription

selectivity for either estrogen receptor (ERα [2]): > 5 fold
Structure (SMILES): CC(C)=CCc1c(O)ccc(C(=O)/C=C/c2ccc(O)cc2)c1O [Isobavachalcone]
GREB1 transcription (qPCR) compared to DMSO (GREB1 [1]): activation of GREB1 transcription

activity in GFP-ERβ:PRL-HeLa cells at the 100nM dose (ERβ [4]; 100nM): also active
EC50 (ERα [2]; PRL-ERα EC50 (nM)): 1.28 nM
Structure (SMILES): CC(C)=CCc1c(O)ccc2c1O[C@H](c1ccc(O)cc1)CC2=O [Isobavachin]
ERα DNA binding and transcription at the 100nM dose (ERα [2]): induced ERα DNA binding and transcription

RNA FISH expression in ERα-GFP:PRL-HeLa (ERα [7]; highest dose tested (10μM)): did not activate RNA FISH expression
dsRed2 reporter gene activation in GFP-ERβ:PRL-HeLa (ERβ [8]): did activate the dsRed2 reporter gene
preference for ERβ compared to ERα (ERβ [4]; array EC50): 5 fold
EC50 (ERβ [4]; [12]): 92.1 nM
EC50 (ERα [2]; read-out: PRL-ERα EC50): 508 nM
Structure (SMILES): C=CC(C)(C)c1cc(/C=C/C(=O)c2ccc(O)cc2)c(OC)cc1O [Licochalcone A]

Structure (SMILES): COc1ccc(CCC(=O)c2ccc(O)cc2)c(OC)c1 [Loureirin A]
ERE-GFP activation in the zebrafish (liver or heart) [3]: Neither isosakuranetin, echinatin, nor loureirin A activated the ERE-GFP
EC50 in MCF-7 growth assay (MCF-7 cells): sub-micromolar
MCF-7 cell proliferation, reaching the level of E2 (MCF-7 cells): not able to reach the level of E2
increase in cell number of MCF-7 cells (MCF-7 cells): 50%
PRL-ERβ EC50 (nM) (ERβ [4]; [11]): sub-micromolar
EC50 (ERβ [4]; [12]): 76.2 nM
PRL-ERα EC50 (nM) (ERα [2]): sub-micromolar
EC50 (ERα [2]; read-out: PRL-ERα EC50): 50 nM

selectivity for either estrogen receptor (ERα [2]): > 5 fold
Structure (SMILES): CC(C)=CCc1cc(-c2coc3cc(O)ccc3c2=O)ccc1O [Neobavaisoflavone]
GREB1 transcription (qPCR) compared to DMSO (GREB1 [1]): activation of GREB1 transcription

Structure (SMILES): COc1ccc(-c2cc(=O)c3c(O)cc(O[C@@H]4O[C@H](CO)[C@@H](O)[C@H](O)[C@H]4O[C@@H]4O[C@@H](C)[C@H](O)[C@@H](O)[C@H]4O)cc3o2)cc1O [Neodiosmin]
ERα DNA binding and transcription at the 100nM dose (ERα [2]): induced ERα DNA binding and transcription

array formation in GFP-PR cell line (controls) [9]: successfully induced array formation
Structure (SMILES): CC(=O)[C@H]1CC[C@H]2[C@@H]3CCC4=CC(=O)CC[C@]4(C)[C@H]3CC[C@]12C [P4, progesterone]

gene transcription (dsRed2 RNA FISH) compared to DMSO (ERα [7]; 10μM, 1 h, hits in ERα-GFP:PRL-HeLa): suppress gene transcription
Structure (SMILES): CN1CCC(c2c(O)cc(O)c3c(=O)cc(-c4ccccc4Cl)oc23)C1CO (stereo not shown) [P276-00]
transcriptional output (dsRed2 FISH) versus DMSO (ERα or ERβ): suppressed transcriptional output to a lower level than DMSO; also recorded: suppressed transcription

Structure (SMILES): Oc1ccc(C2=Cc3ccc(O)cc3OC2)cc1 [Phenoxodiol (Haginin E), Phenoxodiol]
ER signal (ERE-GFP) in the liver [3]: activate ER signal
GREB1 transcription (qPCR) compared to DMSO (GREB1 [1]): activation of GREB1 transcription
activity in GFP-ERβ:PRL-HeLa cells at the 100nM dose (ERβ [4]): also active
ER signal (ERE-GFP) in the heart [5]: activate ER signal
EC50 (ERα [10]): ~500 nM

array formation in GFP-PR cell line (controls) [9]: successfully induced array formation
Structure (SMILES): CCC(=O)[C@@]1(C)CC[C@H]2[C@@H]3CCC4=CC(=O)CCC4=C3CC[C@@]21C [R5020]

activity in GFP-ERβ:PRL-HeLa cells at the 100nM dose (ERβ [4]; 100nM): also active
Structure (SMILES): Oc1ccc([C@H]2COc3cc(O)ccc3C2)cc1 [S-Equol]
ERα DNA binding and transcription at the 100nM dose (ERα [2]): induced ERα DNA binding and transcription
